# Laboratory results as given in patent publication US20120165319A1, “INHIBITORS OF INTERLEUKIN-1 BETA CONVERTING ENZYME” (VERTEX PHARMACEUTICALS INCORPORATED, priority 1995, published 2012).
# What was measured:
# [1] = molecular target: T1, ICE (Homo sapiens, UniProt P29466); assay: Enzyme assay with fluorescent substrate (Acetyl-Tyr-Val-Ala-Asp-AMC); Ki and second order rate constants kinact; assay type: biochemical; conditions: YVAD-AMC substrate; reversible inhibitors (Table 1)
# T1 sequence (P29466 120-297 limits assumed): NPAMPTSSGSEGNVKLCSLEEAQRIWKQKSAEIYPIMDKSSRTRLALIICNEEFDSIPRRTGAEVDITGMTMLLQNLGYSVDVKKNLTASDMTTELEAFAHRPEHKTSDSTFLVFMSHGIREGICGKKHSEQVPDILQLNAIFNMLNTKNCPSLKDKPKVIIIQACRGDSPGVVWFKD
# T1 sequence (P29466 317-404 limits assumed): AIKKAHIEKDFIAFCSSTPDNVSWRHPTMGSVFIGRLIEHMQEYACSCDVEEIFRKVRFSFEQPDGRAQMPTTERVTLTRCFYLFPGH
# Description: 2. Enzyme Assay with Fluorescent Substrate
# This assay is run essentially according to Thornberry et al. (Nature 356: 768-774 (1992)), using substrate 17 referenced in that article. The substrate is: Acetyl-Tyr-Val-Ala-Asp-amino-4-methylcoumarin (AMC). The following components are mixed:
# The assay is run in a 96 well microtiter plate. Buffer and ICE are added to the wells. The components are left to incubate at 37° C. for 15 minutes in a temperature-controlled wellplate. After the 15 minute incubation, the reaction is started by adding substrate directly to the wells and the reaction is monitored @37° C. for 30 minutes by following the release of the AMC fluorophore using an excitation wavelength for 380 nm and an emission wavelength of 460 nm. A linear fit of the data for each well is performed and a rate is determined in fluorescence units per second.
# For determination of enzyme inhibition constants (Ki) or the mode of inhibition (competitive, uncompetitive or noncompetitive), the rate data determined in the enzyme assays at varying inhibitor concentrations are computer-fit to standard enzyme kinetic equations (see I. H. Segel, Enzyme Kinetics, Wiley-Interscience, 1975).
# The determination of second order rate constants for irreversible inhibitors was performed by fitting the fluorescence vs time data to the progress equations of Morrison. Morrison, J. F., Mol. Cell. Biophys., 2, pp. 347-368 (1985). Thornberry et al. have published a description of these methods for measurement of rate constants of irreversible inhibitors of ICE. Thornberry, N. A., et al. Biochemistry, 33, pp. 3923-3940 (1994). For compounds where no prior complex formation can be observed kinetically, the second order rate constants (kinact) are derived directly from the slope of the linear plots of kobs vs. [I]. For compounds where prior complex formation to the enzyme can be detected, the hyperbolic plots of kobs vs. [I] are fit to the equation for saturation kinetics to first generate Ki and k′. The second order rate constant kinact is then given by k′/Ki.
# (§1) The selectivity of a panel of reversible inhibitors for ICE homologs is depicted in Table 1. ICE enzyme assays were performed according to Wilson et al (supra 1994) using a YVAD-AMC substrate (Thornberry et al, supra 1992). Assay of TX activity was performed using the ICE substrate under identical conditions to ICE. Assay of CPP32 was performed using a DEVD-AMC substrate (Nicholson et al., supra 1995). In general, there is low selectivity between ICE and TX for a wide range of scaffolds. None of the synthetic ICE compounds tested are effective inhibitors of CPP32.
# (§2) Second-order rate constants for inactivation of ICE and ICE homologs with selected irreversible inhibitors are presented below (Table 2). The irreversible compounds studied are broad spectrum inhibitors of ICE and its homologs. Some selectivity, however, is observed with the irreversible compounds comparing inhibition of ICE and CPP32.
# [2] = tested on: U937 cells; assay: Fas-induced apoptosis in U937 cells; conditions: anti-Fas-induced apoptosis, U937 cells, 20 μM
# Description: Fas-Induced Apoptosis in U937 cells. Compounds were evaluated for their ability to block anti-Fas-induced apopotosis. […] We used this cell line for apoptosis studies. U937 cells were seeded in culture at 1×10^5 cells/ml and grown to ˜5×10^6 cells/ml. For apoptosis experiments, 2×10^6 cells were plated in 24-well tissue culture plates in 1 ml RPMI-1640-10% FBS and stimulated with 100 ng/ml anti-Fas antigen antibody (Medical and Biological Laboratories, Ltd.). After a 24 hr incubation at 37° C., the percentage of apoptotic cells was determined by FACS analysis using ApoTag reagents.
# [3] = Measurement of blood levels of prodrugs of 214e after p.o. dosing in mice; assay type: in vivo, mouse; conditions: orally, detection level 0.03 to 3 μg/ml
# Description: Measurement of Blood Levels of Prodrugs of 214e
# Mice were administered a p.o. dose of compounds 302 and 304a (50 mg/kg) prepared in 0.5% carboxymethylcellulose. Blood samples were collected at 1 and 7 hours after dosing. Serum was extracted by precipitation with an equal volume of acetonitrile containing 2% formic acid followed by centrifugation. The supernatant was analyzed by liquid chromatography-mass spectrometry (ESI-MS) with a detection level of 0.03 to 3 μg/ml.
# [4] = molecular target: T2, TX (Homo sapiens, UniProt P49662); assay: Inhibition of ICE homologs: TX; assay type: biochemical; conditions: ICE substrate, conditions identical to ICE (Table 1)
# T2 construct: made in house; host or cells: Spodoptera frugiperda (Sf9) insect cells, recombinant baculovirus (pVL1393/TX)
# T2 sequence (P49662 81-270 limits assumed): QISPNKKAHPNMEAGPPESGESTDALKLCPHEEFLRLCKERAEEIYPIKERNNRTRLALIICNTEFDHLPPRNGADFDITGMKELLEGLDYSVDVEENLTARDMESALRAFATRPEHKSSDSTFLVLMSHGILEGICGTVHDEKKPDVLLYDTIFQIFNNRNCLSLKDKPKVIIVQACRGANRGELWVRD
# T2 sequence (P49662 290-377 limits assumed): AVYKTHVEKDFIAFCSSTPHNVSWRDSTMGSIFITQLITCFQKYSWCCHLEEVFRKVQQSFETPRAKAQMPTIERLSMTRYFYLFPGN
# Source text: Expression of TX in insect cells using a baculovirus expression system. We have subcloned Tx cDNA (Faucheu et al., supra 1995) into a modified pVL1393 transfer vector, co-transfected the resultant plasmid (pVL1393/TX) into insect cells with viral DNA and identified the recombinant baculovirus. After the generation of high titer recombinant virus stock, the medium was examined for TX activity using the visible ICE assay. […] ICE was used as a standard in the assay.
# as §1, §2
# [5] = molecular target: T3, CPP32 (Homo sapiens, UniProt P42574); assay: Inhibition of ICE homologs: CPP32 (DEVD-AMC substrate)
# T3 sequence (P42574 29-175 limits assumed): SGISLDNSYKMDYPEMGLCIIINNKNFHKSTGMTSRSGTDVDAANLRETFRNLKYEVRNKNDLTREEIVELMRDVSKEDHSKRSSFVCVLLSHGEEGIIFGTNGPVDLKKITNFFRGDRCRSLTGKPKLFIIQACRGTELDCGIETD
# T3 sequence (P42574 176-277 limits assumed): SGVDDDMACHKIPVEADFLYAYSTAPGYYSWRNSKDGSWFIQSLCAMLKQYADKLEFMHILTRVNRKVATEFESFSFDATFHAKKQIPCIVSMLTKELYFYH
# [6] = molecular target: T1, ICE; assay: Inhibition of IGIF processing by ICE inhibitors, measured in ICE inhibition assays (Example 27, Table 22); assay type: biochemical; conditions: read-out: UV-Visible Ki
# Description: Inhibition of IGIF processing by ICE inhibitors was measured in ICE inhibition assays as described herein (see Example 1 and Table 22).
Structure (SMILES),Ki [1] [nM],Inhibition of apoptosis [2],blood levels when administered orally [3] [ng/mL],Ki [4] [nM],Ki [5] [nM],Ki [6] [nM]
"O=C[C@H](CC(=O)O)NC(=O)[C@@H]1CCCN2C(=O)CC[C@H](NC(=O)c3ccccc3)C(=O)N12 [Compound 214e, [3S(1S,9S)]3-(9-Benzoylamino-6,10-dioxo-1,2,3,4,7,8,9,10-octahydro-6H-pyridazino[1,2-a][1,2]-diazepine-1-carboxamido)-4-oxobutanoic acid]",7.5,no inhibition,≤ 100,7 ± 1.1,> 1000,
"O=C[C@H](CC(=O)O)NC(=O)[C@@H]1CCCN2C(=O)CC[C@H](NC(=O)c3nccc4ccccc34)C(=O)N12 [Compound 412, [3S(1S,9S)]3-[6,10-Dioxo-9-(isoquinolin-1-oylamino)-1,2,3,4,7,8,9,10-octahydro-6H-pyridazino[1,2-a][1,2]diazepine-1-carboxamido]-4-oxobutanoic acid]",,,,,,1.3
